# Test results reported in PubChem BioAssay AID206 (DTP/NCI, 2004).
# “And” between values parts separate entries of the source, which are not always exact repeats. Equal values may be shown once. Results filed as inconclusive are left out.
# Tested on: nude mice, HT29 intrarenal xenograft, tumor weight T/C
# Experiment: NCI In Vivo Anticancer Drug Screen. Data for tumor model HT29;CX-1 Human Adenocarcinoma (MER+) (intrarenal inoculation) in NU/NU Swiss (nude) mice
# Settings: endpoint: mean tumor weight change, higher = larger tumour
# Outline: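 Readout: treated/vehicle-control ratio of the measured endpoint (tumor size or survival) in transplanted-tumor mice.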
# [1] = dose: 150.0 mg/kg/injection, schedule: Q04DX004 (sc), vehicle: saline with Tween-80
# [2] = dose: 300.0 mg/kg/injection, schedule: Q04DX004 (sc), vehicle: saline with Tween-80
# [3] = dose: 600.0 mg/kg/injection, schedule: Q04DX004 (sc), vehicle: saline with Tween-80
# [4] = dose: 100.0 mg/kg/injection, schedule: Q04DX004 (sc), vehicle: saline
# [5] = dose: 400.0 mg/kg/injection, schedule: Q04DX004 (sc), vehicle: saline
# [6] = dose: 150.0 mg/kg/injection, schedule: Q04DX004 (sc), vehicle: Klucel (hydroxypropylcellulose) (HPC)
# [7] = dose: 300.0 mg/kg/injection, schedule: Q04DX004 (sc), vehicle: Klucel (hydroxypropylcellulose) (HPC)
# [8] = dose: 600.0 mg/kg/injection, schedule: Q04DX004 (sc), vehicle: Klucel (hydroxypropylcellulose) (HPC)
# [9] = dose: 1200.0 mg/kg/injection, schedule: Q04DX004 (sc), vehicle: saline with Tween-80
compound,measurement,setting,value
O=C1c2ccccc2C(=O)c2c3c(cc(NCCNCCO)c21)N(CCO)CCN3,T/C,"dose: 100.0 mg/kg/injection, schedule: Q04DX004 (sc), vehicle: DMSO",168 % of control
same,T/C,"dose: 200.0 mg/kg/injection, schedule: Q04DX004 (sc), vehicle: DMSO",112 % of control
same,T/C,"dose: 400.0 mg/kg/injection, schedule: Q04DX004 (sc), vehicle: DMSO",59 % of control
same,T/C,"dose: 800.0 mg/kg/injection, schedule: Q04DX004 (sc), vehicle: DMSO",104 % of control
Cc1oc2c(C)c3oc(=O)cc(C)c3cc2c1CCl,T/C,[1],107 % of control
same,T/C,[2],71 % of control
same,T/C,[3],114 % of control
c1csc(C[N+]23CN4CN(CN(C4)C2)C3)c1,T/C,[4],76 % of control
same,T/C,"dose: 200.0 mg/kg/injection, schedule: Q04DX004 (sc), vehicle: saline",97 % of control
same,T/C,[5],61 % of control
CSc1cc(=O)n2c3ccccc3c3ccnc1c32,T/C,"dose: 80.0 mg/kg/injection, schedule: Q04DX004 (sc), vehicle: saline with Tween-80",88 % of control
same,T/C,"dose: 160.0 mg/kg/injection, schedule: Q04DX004 (sc), vehicle: saline with Tween-80",91 % of control
same,T/C,"dose: 320.0 mg/kg/injection, schedule: Q04DX004 (sc), vehicle: saline with Tween-80",110 % of control
same,T/C,"dose: 640.0 mg/kg/injection, schedule: Q04DX004 (sc), vehicle: saline with Tween-80",58 % of control
CSc1ncc2ncn(C3OC(CO)C(O)C3O)c2n1 (stereo unspecified),T/C,"dose: 75.0 mg/kg/injection, schedule: Q04DX004 (sc), vehicle: Klucel (hydroxypropylcellulose) (HPC)",95 % of control
same,T/C,[6],90 % of control
same,T/C,[7],185 % of control
same,T/C,[8],182 % of control
N/C(=N\O)c1cn(C2OC(CO)C(O)C2O)c2ncnc(N)c12 (stereo unspecified),T/C,"dose: 5.0 mg/kg/injection, schedule: Q04DX004 (sc), vehicle: Klucel (hydroxypropylcellulose) (HPC)",67 % of control
CC(CN1CC(=O)NC(=O)C1)N1CC(=O)NC(=O)C1 (stereo unspecified),T/C,[6],85 % of control
same,T/C,[7],40 % of control
same,T/C,[8],46 % of control
CCN(CC)CCCC(C)Nc1c2ccc(Cl)cc2nc2ccc(OC)cc12 (stereo unspecified),T/C,"dose: 50.0 mg/kg/injection, schedule: Q01DX010 (sc), vehicle: saline with Tween-80",75 % of control
same,T/C,"dose: 100.0 mg/kg/injection, schedule: Q01DX010 (sc), vehicle: saline with Tween-80",91 % of control
same,T/C,"dose: 200.0 mg/kg/injection, schedule: Q01DX010 (sc), vehicle: saline with Tween-80",38 % of control
CCOC(=O)CNC(=O)CCCCSc1ncnc2nc[nH]c12,T/C,"dose: 225.0 mg/kg/injection, schedule: Q04DX004 (sc), vehicle: saline with Tween-80",162 % of control
same,T/C,"dose: 450.0 mg/kg/injection, schedule: Q04DX004 (sc), vehicle: saline with Tween-80",103 % of control
Cc1cn(C2CC(O)C(CO)O2)c(=O)[nH]c1=O (stereo unspecified),T/C,[5],113 % of control
same,T/C,"dose: 800.0 mg/kg/injection, schedule: Q04DX004 (sc), vehicle: saline",94 % of control
same,T/C,"dose: 1600.0 mg/kg/injection, schedule: Q04DX004 (sc), vehicle: saline",102 % of control
same,T/C,"dose: 3200.0 mg/kg/injection, schedule: Q04DX004 (sc), vehicle: saline",81 % of control
NCC1CCC(C(=O)O)CC1 (stereo unspecified),T/C,"dose: 400.0 mg/kg/injection, schedule: Q04DX004 (sc), vehicle: saline with Tween-80",119 % of control
same,T/C,"dose: 800.0 mg/kg/injection, schedule: Q04DX004 (sc), vehicle: saline with Tween-80",93 % of control
same,T/C,"dose: 1600.0 mg/kg/injection, schedule: Q04DX004 (sc), vehicle: saline with Tween-80",112 % of control
COc1cc(C(=O)N/N=C/c2cccc([N+](=O)[O-])c2)cc(OC)c1OC,T/C,[1],91 % of control
same,T/C,[3],70 % of control
same,T/C,[9],120 % of control
CCc1ncnc2cc(OCC3CO3)c(OC)cc12 (stereo unspecified),T/C,"dose: 25.0 mg/kg/injection, schedule: Q04DX004 (sc), vehicle: saline",69 % of control
same,T/C,"dose: 50.0 mg/kg/injection, schedule: Q04DX004 (sc), vehicle: saline",36 % of control
same,T/C,[4],80 % of control
ClC1=C(Cl)C(Cl)=C(Cl)C1=Cc1ccccc1,T/C,"dose: 50.0 mg/kg/injection, schedule: Q04DX004 (sc), vehicle: saline with Tween-80",104 % of control
CCC1OCC(C(Cl)CCl)O1 (stereo unspecified),T/C,"dose: 37.5 mg/kg/injection, schedule: Q01DX014 (sc), vehicle: Klucel (hydroxypropylcellulose) (HPC)",100 % of control
same,T/C,"dose: 37.5 mg/kg/injection, schedule: Q04DX014 (sc), vehicle: Klucel (hydroxypropylcellulose) (HPC)",58 % of control
same,T/C,"dose: 75.0 mg/kg/injection, schedule: Q01DX014 (sc), vehicle: Klucel (hydroxypropylcellulose) (HPC)",193 % of control
same,T/C,"dose: 75.0 mg/kg/injection, schedule: Q04DX014 (sc), vehicle: Klucel (hydroxypropylcellulose) (HPC)",30 % of control
same,T/C,"dose: 150.0 mg/kg/injection, schedule: Q01DX014 (sc), vehicle: Klucel (hydroxypropylcellulose) (HPC)",86 % of control
same,T/C,"dose: 150.0 mg/kg/injection, schedule: Q04DX014 (sc), vehicle: Klucel (hydroxypropylcellulose) (HPC)",1 % of control
same,T/C,"dose: 300.0 mg/kg/injection, schedule: Q01DX014 (sc), vehicle: Klucel (hydroxypropylcellulose) (HPC)",122 % of control
same,T/C,"dose: 300.0 mg/kg/injection, schedule: Q04DX004 (sc), vehicle: other",83 % of control
same,T/C,"dose: 300.0 mg/kg/injection, schedule: Q04DX014 (sc), vehicle: Klucel (hydroxypropylcellulose) (HPC)",-30 % of control
same,T/C,"dose: 600.0 mg/kg/injection, schedule: Q01DX014 (sc), vehicle: Klucel (hydroxypropylcellulose) (HPC)",25 % of control
same,T/C,"dose: 600.0 mg/kg/injection, schedule: Q04DX004 (sc), vehicle: other",21 % of control
same,T/C,"dose: 600.0 mg/kg/injection, schedule: Q04DX014 (sc), vehicle: Klucel (hydroxypropylcellulose) (HPC)",-99 % of control
COCC(O)Cn1ccnc1[N+](=O)[O-] (stereo unspecified),T/C,"dose: 300.0 mg/kg/injection, schedule: Q04DX004 (sc), vehicle: suspension in saline",86 % of control
same,T/C,"dose: 600.0 mg/kg/injection, schedule: Q04DX004 (sc), vehicle: suspension in saline",80 % of control
same,T/C,"dose: 1200.0 mg/kg/injection, schedule: Q04DX004 (sc), vehicle: suspension in saline",75 % of control
C1CNCOC1,T/C,"dose: 75.0 mg/kg/injection, schedule: Q04DX004 (sc), vehicle: saline",123 % of control
same,T/C,"dose: 150.0 mg/kg/injection, schedule: Q04DX004 (sc), vehicle: saline",158 % of control
same,T/C,"dose: 300.0 mg/kg/injection, schedule: Q04DX004 (sc), vehicle: saline",91 % of control
same,T/C,"dose: 600.0 mg/kg/injection, schedule: Q04DX004 (sc), vehicle: saline",75 % of control
C[CH2][Ge]([CH2]C)[CH2]C.C[CH2][Ge]([CH2]C)[CH2]C.C[CH2][Ge]([CH2]C)[O][Ge]([CH2]C)[CH2]C,T/C,[1],112 % of control
O=c1[nH]cc(F)c(=O)[nH]1,T/C,"dose: 6.25 mg/kg/injection, schedule: Q01DX010 (sc), vehicle: saline",160 % of control
same,T/C,"dose: 12.5 mg/kg/injection, schedule: Q01DX010 (sc), vehicle: saline",101 % of control
same,T/C,"dose: 20.0 mg/kg/injection, schedule: Q01DX010 (sc), vehicle: saline",87 % of control and 107 % of control
same,T/C,"dose: 25.0 mg/kg/injection, schedule: Q01DX010 (sc), vehicle: saline",86 % of control
same,T/C,"dose: 40.0 mg/kg/injection, schedule: Q01DX010 (sc), vehicle: saline",46 % of control
same,T/C,"dose: 50.0 mg/kg/injection, schedule: Q04DX004 (ip), vehicle: saline",34 % of control
same,T/C,"dose: 75.0 mg/kg/injection, schedule: Q04DX004 (ip), vehicle: saline",23 % of control
same,T/C,"dose: 80.0 mg/kg/injection, schedule: Q01DX010 (sc), vehicle: saline",59 % of control
O=C(O)C(CSC(c1ccccc1)(c1ccccc1)c1ccccc1)N=Cc1cccs1 (stereo unspecified),T/C,"dose: 200.0 mg/kg/injection, schedule: Q04DX004 (sc), vehicle: suspension in saline",12 % of control
O=C(O)C1CSCN1 (stereo unspecified),T/C,"dose: 50.0 mg/kg/injection, schedule: Q01DX010 (sc), vehicle: water",96 % of control
same,T/C,"dose: 100.0 mg/kg/injection, schedule: Q01DX010 (sc), vehicle: water",105 % of control
CCS/C(SC)=C(/c1ccccc1)[P+](c1ccccc1)(c1ccccc1)c1ccccc1,T/C,"dose: 18.75 mg/kg/injection, schedule: Q04DX004 (sc), vehicle: Klucel (hydroxypropylcellulose) (HPC)",93 % of control
Cc1c2cc(Cl)c3ccccc3c2c[n+]2ccccc12,T/C,[2],101 % of control
same,T/C,[3],82 % of control
same,T/C,[9],103 % of control
